Results published in ChEMBL document CHEMBL1201862, “PubChem BioAssay data set” (2004).
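Briefly, cells in 96-well plates were exposed to five compound concentrations for 48 h, and endpoints were estimated by linear interpolation. GI50: concentration for 50% inhibition of growth.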 Activity calls are given as the source filed them. No stated cut-off is given here; in the data, active = GI50 up to about 1.1 µM and inactive = higher.

Assays:
Assay in all cases: NCI-60 cell line screen, 48 h
HOP-92 = test system: HOP-92
NCI-H23 = test system: NCI-H23
SK-MEL-28 = test system: SK-MEL-28
EKVX = test system: EKVX
SNB-19 = test system: SNB-19
HOP-62 = test system: HOP-62
M14 = test system: M14
OVCAR-4 = test system: OVCAR-4
HCT-116 = test system: HCT-116
COLO 205 = test system: COLO 205
786-0 = test system: 786-0
IGROV-1 = test system: IGROV-1
U-251 = test system: U-251
MOLT-4 = test system: MOLT-4
KM12 = test system: KM12
SK-MEL-5 = test system: SK-MEL-5
SN12C = test system: SN12C
RPMI-8226 = test system: RPMI-8226
SK-MEL-2 = test system: SK-MEL-2

SMILES | GI50 (HOP-92) | GI50 (NCI-H23) | GI50 (SK-MEL-28) | GI50 (EKVX) | GI50 (SNB-19) | GI50 (HOP-62) | GI50 (M14) | GI50 (OVCAR-4) | GI50 (HCT-116) | GI50 (COLO 205) | GI50 (786-0) | GI50 (IGROV-1) | GI50 (U-251) | GI50 (MOLT-4) | GI50 (KM12) | GI50 (SK-MEL-5) | GI50 (SN12C) | GI50 (RPMI-8226) | GI50 (SK-MEL-2)
CNC(=S)N(C)C(=S)Nn1c(=O)c(C)nn(C)c1=S | > 100 µM (inactive) | > 100 µM (inactive) | > 100 µM (inactive) | > 100 µM (inactive) | > 100 µM (inactive) | > 100 µM (inactive) | > 100 µM (inactive) | > 100 µM (inactive) | > 100 µM (inactive) | > 100 µM (inactive) | > 100 µM (inactive) | > 100 µM (inactive) | > 100 µM (inactive) | > 100 µM (inactive) | > 100 µM (inactive) | > 100 µM (inactive) | > 100 µM (inactive) | > 100 µM (inactive) | 
O=c1nc2n(c3nsnc13)CCO2 | > 100 µM (inactive) | > 100 µM (inactive) | > 100 µM (inactive) | > 100 µM (inactive) | > 100 µM (inactive) | > 100 µM (inactive) | > 100 µM (inactive) |  | 29.8 µM (inactive) | > 100 µM (inactive) | > 100 µM (inactive) | > 100 µM (inactive) | > 100 µM (inactive) | > 100 µM (inactive) | > 100 µM (inactive) | > 100 µM (inactive) | > 100 µM (inactive) | > 100 µM (inactive) | > 100 µM (inactive)
CC12CCCC(C#N)(C1)OC2=O (stereo unspecified) | > 100 µM (inactive) | > 100 µM (inactive) | > 100 µM (inactive) | > 100 µM (inactive) | > 100 µM (inactive) | > 100 µM (inactive) | > 100 µM (inactive) | > 100 µM (inactive) | > 100 µM (inactive) |  | > 100 µM (inactive) | > 100 µM (inactive) | > 100 µM (inactive) | > 100 µM (inactive) | > 100 µM (inactive) | > 100 µM (inactive) | > 100 µM (inactive) |  | > 100 µM (inactive)
CN1CCCC2[C@@H]3CCC4c5nonc5CC[C@]4(C)C3CC[C@@]21C (stereo partly specified) |  | > 100 µM (inactive) | 37.6 µM (inactive) | > 100 µM (inactive) | > 100 µM (inactive) |  |  | > 100 µM (inactive) | > 100 µM (inactive) | > 100 µM (inactive) | > 100 µM (inactive) | > 100 µM (inactive) | > 100 µM (inactive) | > 100 µM (inactive) | > 100 µM (inactive) | 42.5 µM (inactive) | 98.6 µM (inactive) | > 100 µM (inactive) | > 100 µM (inactive)
COC(=O)C1=C(\O)C[C@@]2(C)CC[C@@H](C(=O)OC)C2C/C=C\1C(=O)OC (stereo partly specified) | > 100 µM (inactive) |  | 47 µM (inactive) | > 100 µM (inactive) | > 100 µM (inactive) | > 100 µM (inactive) | > 100 µM (inactive) | > 100 µM (inactive) | 66.1 µM (inactive) | > 100 µM (inactive) | > 100 µM (inactive) | > 100 µM (inactive) | > 100 µM (inactive) | 46.6 µM (inactive) | > 100 µM (inactive) | 48.9 µM (inactive) | 24.1 µM (inactive) | 50.1 µM (inactive) | 
O=c1n(C2CCCCC2)c(=C(Cl)Cl)c(=C(Cl)Cl)n1C1CCCCC1 |  | > 100 µM (inactive) | > 100 µM (inactive) | > 100 µM (inactive) | > 100 µM (inactive) | > 100 µM (inactive) |  | > 100 µM (inactive) | 85.7 µM (inactive) | > 100 µM (inactive) | > 100 µM (inactive) | > 100 µM (inactive) | > 100 µM (inactive) | > 100 µM (inactive) | > 100 µM (inactive) | > 100 µM (inactive) | > 100 µM (inactive) | 34.6 µM (inactive) | > 100 µM (inactive)
CCC1=C(C[C@H]2NCCc3cc(OC)c(OC)cc32)C[C@H]2c3cc(OC)c(OC)cc3CCN2C1 | 0.0204 µM (active) | 0.0191 µM (active) | 0.0365 µM (active) | 0.0362 µM (active) |  | 0.0286 µM (active) | 0.0235 µM (active) | 0.0143 µM (active) | 0.0173 µM (active) |  | 0.0261 µM (active) | 0.0445 µM (active) | 0.031 µM (active) | 0.0128 µM (active) |  | 0.0234 µM (active) | 0.0326 µM (active) | 0.021 µM (active) | 0.0248 µM (active)
CCN1C(=O)N2C(OC)c3ccccc3C(Br)C2(OC)C1=O (stereo unspecified) |  | > 100 µM (inactive) | > 100 µM (inactive) |  | > 100 µM (inactive) | > 100 µM (inactive) | > 100 µM (inactive) | > 100 µM (inactive) |  | > 100 µM (inactive) |  | > 100 µM (inactive) | > 100 µM (inactive) | > 100 µM (inactive) | > 100 µM (inactive) | > 100 µM (inactive) | > 100 µM (inactive) | > 100 µM (inactive) | > 100 µM (inactive)
CCOC(=O)NC(=O)c1cn(CCCCCCOC(=O)NCCCCCCNC(=O)OCCCCCCn2cc(C(=O)NC(=O)OCC)c(=O)[nH]c2=O)c(=O)[nH]c1=O |  |  | > 100 µM (inactive) | > 100 µM (inactive) | > 100 µM (inactive) | > 100 µM (inactive) | > 100 µM (inactive) | > 100 µM (inactive) | > 100 µM (inactive) | > 100 µM (inactive) | > 100 µM (inactive) | > 100 µM (inactive) | > 100 µM (inactive) | > 100 µM (inactive) | > 100 µM (inactive) | > 100 µM (inactive) | > 100 µM (inactive) | > 100 µM (inactive) | > 100 µM (inactive)
COC(=O)c1c(-c2ccccc2)cc2c3cc(-c4ccccc4)c(C(=O)OC)n3c3ccccc3n12 |  | > 100 µM (inactive) | > 100 µM (inactive) | > 100 µM (inactive) | > 100 µM (inactive) | > 100 µM (inactive) | > 100 µM (inactive) | 22.6 µM (inactive) | > 100 µM (inactive) | > 100 µM (inactive) | > 100 µM (inactive) | > 100 µM (inactive) | > 100 µM (inactive) | > 100 µM (inactive) | > 100 µM (inactive) | > 100 µM (inactive) | > 100 µM (inactive) | > 100 µM (inactive) | > 100 µM (inactive)
CC(=O)NNc1nc(C)c(C(=O)/C=C/c2cccc([N+](=O)[O-])c2)s1 | > 100 µM (inactive) | > 100 µM (inactive) | > 100 µM (inactive) | 19.5 µM (inactive) | > 100 µM (inactive) | > 100 µM (inactive) | > 100 µM (inactive) |  | > 100 µM (inactive) | > 100 µM (inactive) | > 100 µM (inactive) | > 100 µM (inactive) | > 100 µM (inactive) | > 100 µM (inactive) | > 100 µM (inactive) | > 100 µM (inactive) | > 100 µM (inactive) | > 100 µM (inactive) | > 100 µM (inactive)
[O-]c1c2c(nn1-c1ccc(F)cc1)c1ccccc1c[n+]2Cc1ccccc1 | 18.9 µM (inactive) | 16.3 µM (inactive) | 15.3 µM (inactive) | 19.4 µM (inactive) | 30.8 µM (inactive) | 16.5 µM (inactive) | 1.79 µM (inactive) | 19.3 µM (inactive) | 16.4 µM (inactive) | 1.76 µM (inactive) |  | 11.1 µM (inactive) | 16.4 µM (inactive) | 5.45 µM (inactive) | 1.43 µM (inactive) | 3.96 µM (inactive) | 16.4 µM (inactive) | 3.34 µM (inactive) | 0.501 µM (active)
O=[N+]([O-])c1ccc(-c2ccc(-c3csc(Nc4ccccn4)n3)o2)cc1 | > 100 µM (inactive) | > 10 µM (inactive) | 95.7 µM (inactive) |  | 20.2 µM (inactive) | 31.2 µM (inactive) | 59.6 µM (inactive) | 4.76 µM (inactive) | 47.9 µM (inactive) | > 100 µM (inactive) |  | > 100 µM (inactive) | 13.8 µM (inactive) | > 100 µM (inactive) | 49.5 µM (inactive) |  | 41.4 µM (inactive) | > 100 µM (inactive) | > 100 µM (inactive)
C/C(=N\NC(=O)C(N)=O)c1c(O)cc(C)oc1=O | > 100 µM (inactive) | > 100 µM (inactive) | > 100 µM (inactive) | > 100 µM (inactive) | > 100 µM (inactive) | > 100 µM (inactive) | > 100 µM (inactive) | > 100 µM (inactive) | > 100 µM (inactive) |  | > 100 µM (inactive) | > 100 µM (inactive) | > 100 µM (inactive) | > 100 µM (inactive) | > 100 µM (inactive) | > 100 µM (inactive) | > 100 µM (inactive) |  | > 100 µM (inactive)
Cn1c(=O)c2ccccc2c2nc3ccccc3nc21 |  | > 100 µM (inactive) | > 100 µM (inactive) | > 100 µM (inactive) | > 100 µM (inactive) |  |  |  | > 100 µM (inactive) | > 100 µM (inactive) | 97.5 µM (inactive) | > 100 µM (inactive) | > 100 µM (inactive) | > 100 µM (inactive) | > 100 µM (inactive) | > 100 µM (inactive) | > 100 µM (inactive) | > 100 µM (inactive) | > 100 µM (inactive)
C#Cc1ccccc1C(=O)OC | > 100 µM (inactive) | > 100 µM (inactive) | > 100 µM (inactive) | > 100 µM (inactive) | > 100 µM (inactive) | > 100 µM (inactive) | > 100 µM (inactive) | > 100 µM (inactive) | > 100 µM (inactive) | > 100 µM (inactive) |  | > 100 µM (inactive) | > 100 µM (inactive) | > 100 µM (inactive) | > 100 µM (inactive) | > 100 µM (inactive) | > 100 µM (inactive) | > 100 µM (inactive) | > 100 µM (inactive)
